Format in all cases: cell-based, human
In assay [1] the test system is SFMC from patients with oJIA. The assay can be described thus: Cytokine production in culture supernatants of SFMC incubated with dnaJ and restimulated with autologous feeder cells plus peptide. Particulars: for IFNγ / IL-6 / TNFα / IL-4 / IL-10: mean+SD; for production of IL-10 in patients with extended oligoarthritis: three patients with extended oligoarthritis at sampling; for IL-10 production detectable or not: culture supernatants of SFMC. From the text:
Results are expressed as pg/ml (mean+SD).
Cytokine production to the same peptides was examined in culture supernatants of SFMC from patients with oJIA. […] SFMC from only one of 21 patients with oJIA produced detectable levels of the anti-inflammatory cytokine IL-10, and none produced detectable levels of IL-4.
(§1) In order to evaluate whether human homologous peptides could be the target of cross-recognition leading to self reactivity, human peptides derived from regions of HSJ1, HDJ1, or HDJ2 having sequence homology with E. coli dnaJ were studied. SFMC of 14 patients with oJIA presenting a SI to the recombinant E. coli hsp dnaJ greater than 3 were restimulated for 96 hr with autologous cells in presence or absence of human peptide 2, 3, or 5, which are homologs of bacterial peptide 4; human peptide 20, 21, or 23, which are homologs of bacterial peptide 22; or human peptide 164, 167, or 176, which are homologs of bacterial peptide 174. SFMC proliferative responses, pro-inflammatory cytokine production, and anti-inflammatory IL-4 levels were overall similar between the peptides derived from human dnaJ proteins and the homologous bacterial peptides.
Results are expressed as SI or pg/ml (mean+SD).

For assay [2], the system named is SFMC from patients with oJIA. As to the kind of experiment: Proliferative response of SFMC incubated with dnaJ and restimulated with autologous feeder cells plus peptide. Particulars: for SI: Table 3, dnaJ 72 hr then restimulated with peptide, mean+SD. As to the method: Results, expressed as stimulation index (SI), are shown as mean+SD.
In order to identify possible relevant epitopes on the bacterial dnaJ protein, PBMC and SFMC of patients with oJIA were incubated for 72 hr with dnaJ, and restimulated with autologous feeder cells the in presence or absence of selected E. coli derived MHC class II binder peptides for 96 hr.
as §1
Results are expressed as SI or pg/ml (mean+SD). […]
To explore the possible correlation of clinical features with the development of peptide-induced immune modulation, oJIA patients were grouped according to the course of disease, including those with persistent disease (n=16), and those with extended disease (n=15) o-JIA. (FIG. 25).

For assay [3], the system named is synovial fluid mononuclear cells (SFMC) from patients with oJIA. The assay can be described thus: Proliferative response (stimulation index) of SFMC stimulated with antigen for 96 hr. The note with it: SFMC.
The subject of assay [4] is peripheral blood mononuclear cells (PBMC). As to the kind of experiment: Proliferative response (stimulation index) of PBMC stimulated with antigen for 96 hr. The note with it: PBMC.
Setting [5] is: Table 3, dnaJ 72 hr then restimulated with peptide.
Setting [6] is: Table 1, dnaJ 72 hr then restimulated with peptide 72 hr.

Marks after values point to notes of the source that are not given here.

For the substance “ASYYEILDVPRSASA (listed as Homo sapiens) [Peptide 2, human HSJ1 peptide, homologue of bacterial dnaJ peptide 4]”, in assay [1] (setting [5]), the IFNγ is on record as 51.3 + 72.4 pg/ml, the IL-6 is on record as 41.7 + 43.8 pg/ml and the TNFα is reported as 23.2 + 26.8 pg/ml. Besides, in assay [2], the SI is recorded as 5.9 + 5.7.

On to “DLQLAMAYSLSEMEA (listed as Homo sapiens) [Peptide 254, non-homologous human peptide (HSJ1)]”, for which the “production of IL-10 in patients with extended oligoarthritis” value (“production of IL-10 in patients” below) in assay [1] is “reduced production of IL-10”.

Turning to “EDLFMCMDIQLVEAL (listed as Homo sapiens) [Peptide 256, non-homologous human peptide (HDJ2)]”, the “production of IL-10 in patients” value in assay [1] is “reduced production of IL-10”.

Take “FRSVSTSTTFVQGRR (listed as Homo sapiens) [Peptide 164, human HSJ1 peptide, homologue of bacterial dnaJ peptide 174]”: in assay [1] (setting [5]), the IFNγ is reported as 52.5 + 85.2 pg/ml, the IL-6 was 27.3 + 31.3 pg/ml and the TNFα is 13.5 + 18.9 pg/ml. In addition, the SI in assay [2] was 4.2 + 4.0.

On to “GDLYVQVQVKQHPIF (listed as Escherichia coli) [Peptide 242, bacterial (E. coli) dnaJ peptide]”, for which, in assay [1] (setting [6]), the IFNγ worked out at 41.2 ± 48.8 pg/mL, the IL-4 is below 0.39 pg/mL, the IL-6 is 34.1 ± 41.7 pg/mL and the IL-10 was found to be 5.3 ± 6.6 pg/mL. Moreover, the TNFα in assay [1] (setting [6]) was determined as 14.2 ± 29.2 pg/mL.

Turning to “GRRITTRRIMENGQE (listed as Homo sapiens) [Peptide 176, human HSJ1 peptide, homologue of bacterial dnaJ peptide 174]”, in assay [1] (setting [5]), the IFNγ is given as 45.6 + 68.3 pg/ml, the IL-6 is on record as 21.2 + 25.2 pg/ml and the TNFα is 8.9 + 10.3 pg/ml. Besides, the SI in assay [2] is given as 4.3 + 2.7.

In the case of “KDYYQTLGLARGASD (listed as Homo sapiens) [Peptide 3, human HDJ1 peptide, homologue of bacterial dnaJ peptide 4]”, in assay [1] (setting [5]), the IFNγ is reported as 57.5 + 85.7 pg/ml, the IL-6 is 114.0 + 126 pg/ml and the TNFα is 10.3 + 9.9 pg/ml. Also, in assay [2], the SI was 8.0 + 7.5.

On to “KKAYRKLALKYHPDK (listed as Homo sapiens) [Peptide 23, human HDJ2 peptide, homologue of bacterial dnaJ peptide 22]”, for which, in assay [1] (setting [5]), the IFNγ was 38.2 + 75 pg/ml, the IL-6 is reported as 33.3 + 32.7 pg/ml and the TNFα was 7.7 + 7.6 pg/ml. In addition, the “IL-10 production detectable or not” value in assay [1] is “did not induce detectable levels of IL-10”. For the same substance, the SI in assay [2] is 4.7 + 4.0.

On to “KKAYRRKALQWHPDK (listed as Homo sapiens) [Peptide 20, human HSJ1 peptide, homologue of bacterial dnaJ peptide 22]”, for which, in assay [1] (setting [5]), the IFNγ was 25.3 + 47.4 pg/ml, the IL-6 was 33.0 + 34.0 pg/ml and the TNFα is listed as 11.8 + 11.2 pg/ml. The “IL-10 production detectable or not” value in assay [1] is reported as “did not induce detectable levels of IL-10”. Also, in assay [2], the SI was 4.7 + 4.7.

As to “KRAYRRQALRYHPDK (listed as Homo sapiens) [Peptide 21, human HDJ1 peptide, homologue of bacterial dnaJ peptide 22]”, in assay [1] (setting [5]), the IFNγ is on record as 30.8 + 56.4 pg/ml, the IL-6 is recorded as 33.5 + 43.8 pg/ml and the TNFα is 26.6 + 39.3 pg/ml. Also, the “IL-10 production detectable or not” value in assay [1] is “did not induce detectable levels of IL-10”. In addition, the SI in assay [2] is reported as 4.6 + 4.2.

“PGMVQQIQSVCMECQ (listed as Homo sapiens) [Peptide 167, human HDJ2 peptide, homologue of bacterial dnaJ peptide 174]”: in assay [1] (setting [5]), the IFNγ is 38.3 + 61.2 pg/ml, the IL-6 is 23.0 + 22.3 pg/ml and the TNFα is 7.3 + 7.3 pg/ml. Also, the SI in assay [2] is 3.9 + 3.1.

Take “PINFAMAALGGEIEV (listed as Escherichia coli) [Peptide 268, bacterial (E. coli) dnaJ peptide]”: in assay [1] (setting [6]), the IFNγ worked out at 34.7 ± 51.2 pg/mL, the IL-4 is below 0.39 pg/mL, the IL-6 stood at 45 ± 58.4 pg/mL and the IL-10 is below 3.9 pg/mL. The TNFα in assay [1] (setting [6]) turned out to be 17.2 ± 30.1 pg/mL.

With “QAYEVLSDAKKRELYD (listed as Homo sapiens) [Peptide 50, non-homologous human peptide (HDJ2)]”, the “production of IL-10 in patients” value in assay [1] was “reduced production of IL-10”.

As for “QDYYEILGVSKTAEE (listed as Escherichia coli) [Peptide 4, bacterial (E. coli) dnaJ peptide]”, in assay [1] (setting [6]), the IFNγ is 38.5 ± 47.7 pg/mL, the IL-4 is below 0.39 pg/mL, the IL-6 was determined as 49.8 ± 54.0 pg/mL and the IL-10 was found to be 5.4 ± 6.9 pg/mL. Besides, in assay [1] (setting [6]), the TNFα is 9.8 ± 21.2 pg/mL. Besides, in assay [1] (setting [5]), the IFNγ is listed as 30.8 + 52.4 pg/ml, the IL-6 is on record as 60.2 + 60.3 pg/ml and the TNFα is on record as 6.0 + 4.5 pg/ml. Also, the SI in assay [2] is on record as 4.1 + 3.33.

In the case of “QGFFAVQQTCPHCQG (listed as Escherichia coli) [Peptide 174, bacterial (E. coli) dnaJ peptide]”, in assay [1] (setting [6]), the IFNγ is 29.8 ± 44.6 pg/mL, the IL-4 is below 0.39 pg/mL, the IL-6 came out at 47.3 ± 61.2 pg/mL and the IL-10 is 4.2 ± 1.9 pg/mL. In assay [1] (setting [6]), the TNFα was 16.1 ± 31.5 pg/mL. Also, in assay [1] (setting [5]), the IFNγ is given as 31.4 + 53.1 pg/ml, the IL-6 is listed as 56.4 + 70 pg/ml and the TNFα was 16.1 + 30.9 pg/ml. Moreover, in assay [2], the SI was 5.9 + 7.5.

On to “QKRAAYDQYGHAAFEQ (listed as Escherichia coli) [Peptide 61, bacterial (E. coli) dnaJ peptide]”, for which, in assay [1] (setting [6]), the IFNγ was 31 ± 45.7 pg/mL, the IL-4 is below 0.39 pg/mL, the IL-6 is 47.6 ± 70.5 pg/mL and the IL-10 was below 3.9 pg/mL. Moreover, in assay [1] (setting [6]), the TNFα was found to be 22.6 ± 35.3 pg/mL.

“RKAYKRLAMKYHPDR (listed as Escherichia coli) [Peptide 22, bacterial (E. coli) dnaJ peptide]”: in assay [1] (setting [6]), the IFNγ is 27 ± 38.0 pg/mL, the IL-4 is below 0.39 pg/mL, the IL-6 turned out to be 45.7 ± 57.7 pg/mL and the IL-10 was 4.4 ± 2.7 pg/mL. Besides, in assay [1] (setting [6]), the TNFα turned out to be 14.1 ± 26.8 pg/mL. In assay [1] (setting [5]), the IFNγ is on record as 20.1 + 33.5 pg/ml, the IL-6 is given as 54.3 + 69.0 pg/ml and the TNFα is given as 10.5 + 23.1 pg/ml. In assay [1], the “IL-10 production detectable or not” value is reported as “did not induce detectable levels of IL-10”. Besides, the SI in assay [2] is 4.7 + 4.0.

For the substance “RTIVITSHPGQIVKH (listed as Homo sapiens) [Peptide 283, non-homologous human peptide (HDJ2)]”, in assay [1], the “production of IL-10 in patients” value is reported as “reduced production of IL-10”.

Regarding “SKTLSVKIPGAVDTG (listed as Escherichia coli) [Peptide 209, bacterial (E. coli) dnaJ peptide]”, in assay [1] (setting [6]), the IFNγ turned out to be 41.3 ± 46.9 pg/mL, the IL-4 is below 0.39 pg/mL, the IL-6 worked out at 56.6 ± 65.9 pg/mL and the IL-10 was found to be 6.2 ± 5.8 pg/mL. In addition, in assay [1] (setting [6]), the TNFα is 15.3 ± 29.2 pg/mL.

With “TTYYDVLGVKPNATQ (listed as Homo sapiens) [Peptide 5, human HDJ2 peptide, homologue of bacterial dnaJ peptide 4]”, in assay [1] (setting [5]), the IFNγ is recorded as 69.5 + 105.2@ pg/ml, the IL-6 is 60.0 + 67.2 pg/ml and the TNFα is 18.9 + 16.9 pg/ml. Moreover, the “IFNγ production compared with bacterial homolog” value in assay [1] (p<0.05) is on record as “significantly greater”. Also, the SI in assay [2] is 8.2 + 7.3*. Also, the “proliferative response compared with bacterial homolog” value in assay [2] (p<0.03) is “significantly greater”.

YCEVPTNFAMAALGG [Peptide 264]: in assay [1] (setting [6]), the IFNγ turned out to be 44.9 ± 55.8 pg/mL, the IL-4 was below 0.39 pg/mL, the IL-6 came out at 47.4 ± 61.2 pg/mL and the IL-10 is below 3.9 pg/mL. Besides, the TNFα in assay [1] (setting [6]) was found to be 14.0 ± 29.3 pg/mL.

As to tetanus toxoid [TT, reference compound], the “median SI” value in assay [3] amounted to 6.0; in assay [4] it was 12.3.

The values are drawn from patent US7301005B2, “Immunomodulatory peptides derived from heat shock proteins and uses thereof” (priority 2000, dated 2007).
